Legend:
[1] = test system: Ca^2+ spike activity of cultured embryonic spinal neurons; assay: Suppression of spike activity in dissociated neuron cultures; assay type: cell-based, Xenopus; settings: 2 mM Ca^2+ culture medium
[2] = test system: myoballs expressing glutamate receptors (rGluR2); assay: Whole-cell recording of spontaneous synaptic currents from myoballs expressing rGluR2 at neuronal growth cones; assay type: cell-based, Xenopus; settings: myoballs expressing rGluR2 in contact with growth cones

| Compound | spike activity in vitro [1] | spontaneous synaptic currents (SSCs), glutamatergic [2] |
| --- | --- | --- |
| CC(=O)OCOC(=O)CN(CC(=O)OCOC(C)=O)c1ccccc1OCCOc1ccccc1N(CC(=O)OCOC(C)=O)CC(=O)OCOC(C)=O [BAPTA-AM, bis-(o-aminophenoxy)ethane-N,N,N,N-tetraacetic acid acetoxymethyl ester] | suppression of spike activity |  |
| N#Cc1cc2c(cc1[N+](=O)[O-])=NC(=O)C(=O)N=2 [CNQX] |  | blocked |
